From patent US20060172361A1, “Assay for detection of translocase enzyme activity in drug screening” (AstraZeneca AB, priority 2000, published 2006)

Tests used:
[1] = tested on: translocase and transferase enzymes; experiment: Scintillation proximity assay of Lipid II synthesis (translocase plus transferase) with lysozyme-prepared E. coli AMA1004 membranes (Example 3); details: 100 μM test compound; after subtracting 0% reaction readings
Protocol: (i) The wells of a microtitre plate were individually filled with a total volume of 25 μl of a reaction mixture comprising an aqueous buffer solution of 50 mM HEPES-ammonia (N-[2-Hydroxyethyl]piperazine-N′-[2-ethanesulfonic acid]) (pH 7.5), and 10 mM magnesium chloride 15 μM UDP-MurNAc-L-alanine-γ-D-glutamic acid-m-diaminopimelic acid-D-alanine-D-alanine, 2.5 μM tritiated UDP-N-acetyl glucosamine (0.2 μCi per well), 6 μg of Escherichia coli AMA1004 cell membranes prepared as described below and a solution of test compound (e.g. Tunicamycin, Vancomycin) of varying concentration in 4% dimethylsulphoxide.
Four wells of the microtitre plate were used as controls: two wells contained no UDP-N-acetylmuramylpentapeptide (0% reaction controls) and a further two wells contained no test compound (100% reaction controls).
If the purpose of the screen is to study the effect of an inhibitor of the transferase or translocase the test compound is added along with the substrates at step (i).
The E. coli membranes were prepared as follows.
Four to five colonies of the bacteria from an LB (Luria Bertani medium) agar plate were inoculated into 5 ml LB-broth and grown during the day (for 6-8 hours) at 37° C. […]
The plate was left for 3 hours/overnight at room temperature before being counted in the “Microbeta Trilux” counter.

[2] = tested on: transferase enzyme; experiment: Scintillation proximity assay of transferase alone, with pre-formed Lipid I and Tunicamycin block, using E. coli AMA1004 ΔponB membranes (Example 4); type: biochemical, Escherichia coli; details: after subtracting 0% reaction readings
Protocol: Microbiol., (1985), 131, 2839-2845. The plate was incubated for 20 min at 37° C.
(ii) Tunicamycin was then added to a final concentration of 10 μg/ml, followed by a test compound (e.g. Vancomycin or Nisin) of varying concentration in dimethyl sulphoxide. Nisin and Vancomycin are known antagonists of the transferase enzyme.
(iii) Then to the reaction well, in a 5 μl volume, the substrate for the transferase was added: 2.5 μM tritiated UDP-N-acetyl glucosamine (0.5 μCi per well). The microtitre plate was incubated for 5 min at 37° C.
(iv) The reaction was terminated by diluting out the radiolabel i.e. by addition of 25 μl of 200 μM unlabelled UDP-GlcNAc.

Molecule	% Inhibition [1] [%]	% Enzyme Activity ([2]; 100 μM test compound)	% Enzyme Activity ([2]; 10 μg/ml test compound)
CN[C@H](CC(C)C)C(=O)N[C@H]1C(=O)N[C@@H](CC(N)=O)C(=O)N[C@H]2C(=O)N[C@H]3C(=O)N[C@H](C(=O)N[C@H](C(=O)O)c4cc(O)cc(O)c4-c4cc3ccc4O)[C@H](O)c3ccc(c(Cl)c3)Oc3cc2cc(c3O[C@@H]2O[C@H](CO)[C@@H](O)[C@H](O)[C@H]2O[C@H]2C[C@](C)(N)[C@H](O)[C@H](C)O2)Oc2ccc(cc2Cl)[C@H]1O [Vancomycin]	82	˜50%	–
Nisin	–	–	˜30%
